Consider 28 molecules from patent US9309250B2, “Substituted pyrrolo[2,3-b]pyrazines as ATR kinase inhibitors” (Vertex Pharmaceuticals Incorporated, priority 2011, dated 2016).

Structures are written as SMILES. Where only a bound is given, the exact number is not on record here.

The assay concerns the target T1, full-length ATR (Homo sapiens, UniProt Q13535).
T1 construct: Assays were carried out at 25° C. in the presence of 5 nM full-length ATR
Put plainly: ATR Inhibition Assay (radioactive-phosphate incorporation). As to conditions: Ki(app), 5 nM full-length ATR, 10 μM ATP, 25° C. It is filed as biochemical. As to the method: Compounds were screened for their ability to inhibit ATR kinase using a radioactive-phosphate incorporation assay. Assays were carried out in a mixture of 50 mM Tris/HCl (pH 7.5), 10 mM MgCl2 and 1 mM DTT. Final substrate concentrations were 10 μM [γ-33P]ATP (3mCi 33P ATP/mmol ATP, Perkin Elmer) and 800 μM target peptide (ASELPASQPQPFSAKKK) (SEQ. ID. NO: 1).
Assays were carried out at 25° C. in the presence of 5 nM full-length ATR. An assay stock buffer solution was prepared containing all of the reagents listed above, with the exception of ATP and the test compound of interest. 13.5 μL of the stock solution was placed in a 96 well plate followed by addition of 2 μL of DMSO stock containing serial dilutions of the test compound (typically starting from a final concentration of 15 μM with 3-fold serial dilutions) in duplicate (final DMSO concentration 7%). The plate was pre-incubated for 10 minutes at 25° C. and the reaction initiated by addition of 15 μL [γ-33P]ATP (final concentration 10 μM).
The reaction was stopped after […] by the addition of 30 μL 0.1M phosphoric acid containing 2 mM ATP. A multiscreen phosphocellulose filter 96-well plate (Millipore, Cat no. MAPHN0B50) was pretreated with 100 μL 0.2M phosphoric acid prior to the addition of 45 μL of the stopped assay mixture. The plate was washed with 5×200 μL 0.2M phosphoric acid. After drying, 100 μL Optiphase ‘SuperMix’ liquid scintillation cocktail (Perkin Elmer) was added to the well prior to scintillation counting (1450 Microbeta Liquid Scintillation Counter, Wallac).
After removing mean background values for all of the data points, Ki(app) data were calculated from non-linear regression analysis of the initial rate data using the Prism software package (GraphPad Prism version 3.0cx for Macintosh, GraphPad Software, San Diego Calif., USA).
Below is a chart showing the ATR Inhibition Ki values of compounds of the disclosure.

T1 sequence (Q13535 whole entry): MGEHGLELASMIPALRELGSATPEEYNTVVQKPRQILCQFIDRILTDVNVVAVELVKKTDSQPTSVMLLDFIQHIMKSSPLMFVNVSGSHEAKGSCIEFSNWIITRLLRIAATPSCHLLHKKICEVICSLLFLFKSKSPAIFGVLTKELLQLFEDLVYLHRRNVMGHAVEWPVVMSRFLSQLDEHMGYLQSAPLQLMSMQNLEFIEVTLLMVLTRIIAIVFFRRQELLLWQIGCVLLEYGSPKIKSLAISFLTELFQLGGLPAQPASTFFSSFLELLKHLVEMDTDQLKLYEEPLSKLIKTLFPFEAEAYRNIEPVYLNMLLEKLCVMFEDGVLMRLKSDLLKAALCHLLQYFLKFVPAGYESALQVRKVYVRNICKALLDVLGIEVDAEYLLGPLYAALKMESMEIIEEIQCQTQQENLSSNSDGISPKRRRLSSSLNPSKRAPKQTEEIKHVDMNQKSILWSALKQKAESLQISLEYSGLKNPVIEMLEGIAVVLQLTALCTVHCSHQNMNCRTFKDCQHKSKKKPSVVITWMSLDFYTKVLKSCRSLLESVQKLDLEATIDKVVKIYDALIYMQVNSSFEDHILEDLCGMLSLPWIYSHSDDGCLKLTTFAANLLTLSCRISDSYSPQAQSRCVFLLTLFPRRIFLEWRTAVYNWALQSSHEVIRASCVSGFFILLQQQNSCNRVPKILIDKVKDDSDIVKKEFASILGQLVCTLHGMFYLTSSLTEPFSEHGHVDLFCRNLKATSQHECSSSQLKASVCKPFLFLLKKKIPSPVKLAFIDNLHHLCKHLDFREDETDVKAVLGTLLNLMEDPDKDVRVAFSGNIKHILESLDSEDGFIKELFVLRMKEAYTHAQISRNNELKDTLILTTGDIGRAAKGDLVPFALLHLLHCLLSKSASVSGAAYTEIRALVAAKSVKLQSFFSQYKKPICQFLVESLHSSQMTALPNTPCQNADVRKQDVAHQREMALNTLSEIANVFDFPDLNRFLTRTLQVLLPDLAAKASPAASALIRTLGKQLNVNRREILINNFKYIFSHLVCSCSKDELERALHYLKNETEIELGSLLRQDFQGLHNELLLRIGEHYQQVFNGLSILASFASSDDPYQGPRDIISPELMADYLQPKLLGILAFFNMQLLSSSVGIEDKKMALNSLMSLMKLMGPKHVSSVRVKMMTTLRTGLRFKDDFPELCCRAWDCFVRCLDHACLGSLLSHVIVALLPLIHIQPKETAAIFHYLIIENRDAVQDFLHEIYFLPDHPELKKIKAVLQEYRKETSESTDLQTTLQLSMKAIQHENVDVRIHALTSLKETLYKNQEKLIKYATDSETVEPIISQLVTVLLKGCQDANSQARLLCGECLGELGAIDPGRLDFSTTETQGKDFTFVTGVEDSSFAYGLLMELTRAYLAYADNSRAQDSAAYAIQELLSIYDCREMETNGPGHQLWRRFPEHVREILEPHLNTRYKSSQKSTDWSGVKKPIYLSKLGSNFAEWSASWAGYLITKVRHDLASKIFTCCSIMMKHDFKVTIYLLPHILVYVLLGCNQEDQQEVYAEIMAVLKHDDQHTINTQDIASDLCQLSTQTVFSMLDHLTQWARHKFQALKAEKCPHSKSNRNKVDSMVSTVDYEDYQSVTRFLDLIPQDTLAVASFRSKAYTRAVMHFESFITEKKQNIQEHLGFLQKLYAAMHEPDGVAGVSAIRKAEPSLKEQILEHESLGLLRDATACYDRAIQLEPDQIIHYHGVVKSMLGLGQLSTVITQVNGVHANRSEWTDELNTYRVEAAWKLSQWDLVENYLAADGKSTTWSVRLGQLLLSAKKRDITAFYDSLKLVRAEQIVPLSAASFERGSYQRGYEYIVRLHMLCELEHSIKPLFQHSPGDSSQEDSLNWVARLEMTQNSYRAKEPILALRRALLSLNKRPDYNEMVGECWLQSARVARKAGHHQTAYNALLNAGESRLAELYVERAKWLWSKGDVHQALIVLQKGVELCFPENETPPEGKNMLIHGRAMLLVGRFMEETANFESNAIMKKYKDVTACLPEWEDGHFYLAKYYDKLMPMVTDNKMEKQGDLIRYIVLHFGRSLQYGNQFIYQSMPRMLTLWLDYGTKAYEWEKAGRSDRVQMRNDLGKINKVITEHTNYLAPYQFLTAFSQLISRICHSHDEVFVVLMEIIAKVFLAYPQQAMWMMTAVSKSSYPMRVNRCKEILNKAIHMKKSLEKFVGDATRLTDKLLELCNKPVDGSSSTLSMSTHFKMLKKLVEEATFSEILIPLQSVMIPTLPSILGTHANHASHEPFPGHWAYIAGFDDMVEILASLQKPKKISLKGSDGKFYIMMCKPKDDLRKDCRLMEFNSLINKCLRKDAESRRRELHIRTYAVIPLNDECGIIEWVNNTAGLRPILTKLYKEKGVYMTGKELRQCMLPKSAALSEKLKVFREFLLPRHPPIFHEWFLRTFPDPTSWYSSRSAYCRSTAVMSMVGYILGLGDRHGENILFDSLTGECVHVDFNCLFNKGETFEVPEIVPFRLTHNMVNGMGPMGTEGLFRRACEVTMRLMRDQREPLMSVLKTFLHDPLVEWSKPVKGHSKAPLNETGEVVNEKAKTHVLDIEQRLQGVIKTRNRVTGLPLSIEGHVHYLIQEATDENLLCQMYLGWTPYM

For `CC(C)S(=O)(=O)c1ccc(-c2cnc3[nH]cc(N4Cc5ccccc5C4=O)c3n2)cc1` [Compound I-1, 2-(2-(4-(isopropylsulfonyl)phenyl)-5H-pyrrolo[2,3-b]pyrazin-7-yl)isoindolin-1-one], under “800 μM target peptide”, the Ki is not above 50 nM.

As for `CC(C)S(=O)(=O)c1ccc(-c2cnc3[nH]cc(N4CCc5ccccc5C4=O)c3n2)cc1` [Compound I-2, 2-(2-(4-(isopropylsulfonyl)phenyl)-5H-pyrrolo[2,3-b]pyrazin-7-yl)-3,4-dihydroisoquinolin-1(2H)-one], the Ki (800 μM target peptide) lay within 100 to 250 nM. Consider `CC1c2ccccc2C(=O)N1c1c[nH]c2ncc(-c3ccc(S(=O)(=O)C(C)C)cc3)nc12` (stereo not shown) [Compound I-3, 2-(2-(4-(isopropylsulfonyl)phenyl)-5H-pyrrolo[2,3-b]pyrazin-7-yl)-3-methylisoindolin-1-one], for which the Ki (800 μM target peptide) was not above 50 nM.

As to `CN(C)C(=O)c1ccc(-c2cnc3[nH]cc(N4Cc5ccccc5C4=O)c3n2)cc1` [Compound I-4, N,N-dimethyl-4-(7-(1-oxoisoindolin-2-yl)-5H-pyrrolo[2,3-b]pyrazin-2-yl)benzamide], the Ki (800 μM target peptide) is 50 to 100 nM. Consider `O=C1c2ccccc2CN1c1c[nH]c2ncc(-c3ccc(S(=O)(=O)C4COC4)cc3)nc12` [Compound I-5, 2-(2-(4-(oxetan-3-ylsulfonyl)phenyl)-5H-pyrrolo[2,3-b]pyrazin-7-yl)isoindolin-1-one], for which the Ki (800 μM target peptide) was not above 50 nM.

For `CC(C)(C#N)c1cc(-c2cnc3[nH]cc(N4Cc5ccccc5C4=O)c3n2)ccn1` [Compound I-6, 2-methyl-2-(4-(7-(1-oxoisoindohn-2-yl)-5H-pyrrolo[2,3-b]pyrazin-2-yl)pyridin-2-yl)propanenitrile], where the note is “800 μM target peptide”, the Ki is not above 50 nM. For the molecule `N#CC1(c2cc(-c3cnc4[nH]cc(N5Cc6ccccc6C5=O)c4n3)ccn2)CN2CCC1CC2` (stereo not shown) [Compound I-7, 3-(4-(7-(1-oxoisoindolin-2-yl)-5H-pyrrolo[2,3-b]pyrazin-2-yl)pyridin-2-yl)quinuclidine-3-carbonitrile], the Ki (800 μM target peptide) is not above 50 nM. On to `O=C1c2ccccc2CN1c1c[nH]c2ncc(-c3ccc(S(=O)(=O)C4CCCNC4)cc3)nc12` (stereo not shown) [Compound I-8, 2-(2-(4-(piperidin-3-ylsulfonyl)phenyl)-5H-pyrrolo[2,3-b]pyrazin-7-yl)isoindolin-1-one], for which the Ki (800 μM target peptide) is not above 50 nM. Take `CC(C)S(=O)(=O)c1ccc(-c2cnc3[nH]cc(N4Cc5cc(Br)ccc5C4=O)c3n2)cc1` [Compound I-9, 5-bromo-2-(2-(4-(isopropylsulfonyl)phenyl)-5H-pyrrolo[2,3-b]pyrazin-7-yl)isoindolin-1-one]: the Ki (800 μM target peptide) was 50 to 100 nM.

In the case of `CC(C)S(=O)(=O)c1ccc(-c2cnc3[nH]cc(N4Cc5c(Cl)cccc5C4=O)c3n2)cc1` [Compound I-11, 4-chloro-2-(2-(4-(isopropylsulfonyl)phenyl)-5H-pyrrolo[2,3-b]pyrazin-7-yl)isoindolin-1-one], the Ki (800 μM target peptide) was in the range of 50 to 100 nM. On the same count and under the same terms, under `CC(C)S(=O)(=O)c1ccc(-c2cnc3[nH]cc(N4Cc5cccc(Cl)c5C4=O)c3n2)cc1` [Compound I-12, 7-chloro-2-(2-(4-(isopropylsulfonyl)phenyl)-5H-pyrrolo[2,3-b]pyrazin-7-yl)isoindolin-1-one] stands not above 50 nM. For `CC(C)S(=O)(=O)c1ccc(-c2cnc3[nH]cc(N4Cc5ccc(C#N)cc5C4=O)c3n2)cc1` [Compound I-13, 2-(2-(4-(isopropylsulfonyl)phenyl)-5H-pyrrolo[2,3-b]pyrazin-7-yl)-3-oxoisoindoline-5-carbonitrile], the Ki (numeric bound printed among class symbols) was more than 4000 nM. With `CC(C)S(=O)(=O)c1ccc(-c2cnc3[nH]cc(N4Cc5cccc([N+](=O)[O-])c5C4=O)c3n2)cc1` [Compound I-14, 2-(2-(4-(isopropylsulfonyl)phenyl)-5H-pyrrolo[2,3-b]pyrazin-7-yl)-7-nitroisoindolin-1-one], where the note is “800 μM target peptide”, the Ki is not above 50 nM. As for `CC(C)S(=O)(=O)c1ccc(-c2cnc3[nH]cc(N4Cc5cc(CN)ccc5C4=O)c3n2)cc1` [Compound I-15, 5-(aminomethyl)-2-(2-(4-(isopropylsulfonyl)phenyl)-5H-pyrrolo[2,3-b]pyrazin-7-yl)isoindolin-1-one], the Ki (800 μM target peptide) is 100 to 250 nM.

In the case of `CC(C)S(=O)(=O)c1ccc(-c2cnc3[nH]cc(N4Cc5c(C#N)cccc5C4=O)c3n2)cc1` [Compound I-16, 2-(2-(4-(isopropylsulfonyl)phenyl)-5H-pyrrolo[2,3-b]pyrazin-7-yl)-1-oxoisoindoline-4-carbonitrile], for the setting “800 μM target peptide”, the Ki lay in the range of 50 to 100 nM.

`CC(C)S(=O)(=O)c1ccc(-c2cnc3[nH]cc(N4Cc5c(CN)cccc5C4=O)c3n2)cc1` [Compound I-17, 4-(aminomethyl)-2-(2-(4-(isopropylsulfonyl)phenyl)-5H-pyrrolo[2,3-b]pyrazin-7-yl)isoindolin-1-one]: the Ki (800 μM target peptide) was not above 50 nM.

Regarding `CC(C)S(=O)(=O)c1ccc(-c2cnc3[nH]cc(N4Cc5cccc(C#N)c5C4=O)c3n2)cc1` [Compound I-18, 2-(2-(4-(isopropylsulfonyl)phenyl)-5H-pyrrolo[2,3-b]pyrazin-7-yl)-3-oxoisoindoline-4-carbonitrile], for the setting “800 μM target peptide”, the Ki was not above 50 nM. As for `CC(C)S(=O)(=O)c1ccc(-c2cnc3[nH]cc(N4Cc5cccc(CN)c5C4=O)c3n2)cc1` [Compound I-19, 7-(aminomethyl)-2-(2-(4-(isopropylsulfonyl)phenyl)-5H-pyrrolo[2,3-b]pyrazin-7-yl)isoindolin-1-one], the Ki (800 μM target peptide) was not above 50 nM. On the same count and under the same terms, under `CC(C)S(=O)(=O)c1ccc(-c2cnc3[nH]cc(N4Cc5ccc(CN)cc5C4=O)c3n2)cc1` [Compound I-20, 6-(aminomethyl)-2-(2-(4-(isopropylsulfonyl)phenyl)-5H-pyrrolo[2,3-b]pyrazin-7-yl)isoindolin-1-one] stands not above 50 nM; under `CC(C)S(=O)(=O)c1ccc(-c2cnc3[nH]cc(N4Cc5cccc(N)c5C4=O)c3n2)cc1` [Compound I-21, 7-amino-2-(2-(4-(isopropylsulfonyl)phenyl)-5H-pyrrolo[2,3-b]pyrazin-7-yl)isoindolin-1-one], not above 50 nM. With `O=C1c2c(Cl)cccc2CN1c1c[nH]c2ncc(-c3ccc(S(=O)(=O)C4CCNCC4)cc3)nc12` [Compound I-23, 7-chloro-2-(2-(4-(piperidin-4-ylsulfonyl)phenyl)-5H-pyrrolo[2,3-b]pyrazin-7-yl)isoindolin-1-one], the Ki (800 μM target peptide) is not above 50 nM. Turning to `O=C1c2c(Cl)cccc2CN1c1c[nH]c2ncc(-c3ccc(S(=O)(=O)C4CCCNC4)cc3)nc12` (stereo not shown) [Compound I-24, 7-chloro-2-(2-(4-(piperidin-3-ylsulfonyl)phenyl)-5H-pyrrolo[2,3-b]pyrazin-7-yl)isoindolin-1-one], the Ki (800 μM target peptide) is not above 50 nM.

Consider `CC(C)S(=O)(=O)c1ccc(-c2cnc3[nH]cc(N4Cc5ccc(N6CC[C@@H](N)C6)cc5C4=O)c3n2)cc1` [Compound I-25, (R)-6-(3-aminopyrrolidin-1-yl)-2-(2-(4-(isopropylsulfonyl)phenyl)-5H-pyrrolo[2,3-b]pyrazin-7-yl)isoindolin-1-one], for which, for the setting “800 μM target peptide”, the Ki is not above 50 nM. Consider `CC(C)S(=O)(=O)c1ccc(-c2cnc3[nH]cc(N4Cc5ccc(NCCN(C)C)cc5C4=O)c3n2)cc1` [Compound I-26, 6-((2-(dimethylamino)ethyl)amino)-2-(2-(4-(isopropylsulfonyl)phenyl)-5H-pyrrolo[2,3-b]pyrazin-7-yl)isoindolin-1-one], for which, under “800 μM target peptide”, the Ki was not above 50 nM. Regarding `CC(C)S(=O)(=O)c1ccc(-c2cnc3[nH]cc(N4Cc5ccc(N6CC[C@H](N)C6)cc5C4=O)c3n2)cc1` [Compound I-27, (S)-6-(3-aminopyrrolidin-1-yl)-2-(2-(4-(isopropylsulfonyl)phenyl)-5H-pyrrolo[2,3-b]pyrazin-7-yl)isoindolin-1-one], the Ki (800 μM target peptide) is not above 50 nM.

For `CC(C)S(=O)(=O)c1ccc(-c2cnc3[nH]cc(N4Cc5cc(N6CCNCC6)ccc5C4=O)c3n2)cc1` [Compound I-28, 2-(2-(4-(isopropylsulfonyl)phenyl)-5H-pyrrolo[2,3-b]pyrazin-7-yl)-5-(piperazin-1-yl)isoindolin-1-one], the Ki (800 μM target peptide) is not above 50 nM. For `CC(C)S(=O)(=O)c1ccc(-c2cnc3[nH]cc(N4Cc5cc(N6CC[C@H](CN)C6)ccc5C4=O)c3n2)cc1` [Compound I-29, (R)-5-(3-(aminomethyl)pyrrolidin-1-yl)-2-(2-(4-(isopropylsulfonyl)phenyl)-5H-pyrrolo[2,3-b]pyrazin-7-yl)isoindolin-1-one], where the note is “800 μM target peptide”, the Ki was not above 50 nM.

In the case of `CC(C)S(=O)(=O)c1ccc(-c2cnc3[nH]cc(N4Cc5cc(N6CCCC(N)C6)ccc5C4=O)c3n2)cc1` (stereo not shown) [Compound I-30, 5-(3-aminopiperidin-1-yl)-2-(2-(4-(isopropylsulfonyl)phenyl)-5H-pyrrolo[2,3-b]pyrazin-7-yl)isoindolin-1-one], the Ki (800 μM target peptide) was not above 50 nM.
